Values of other authors, collected in patent publication US20040185057A1, “Therapeutical vaccination” (priority 2001, published 2004).

System: HLA-A2 super type MHC class-I molecule, allele A*6802
Conditions: HLA-A2 allele A*6802; read-out: Binding capacity, IC50

First: LTFGWCFKLV
Second: MASDFNLPPV
The IC50 of the first is 2.9-fold lower: 0.0062 µM for the first, 0.0182 µM for the second.

Going from KMIGGIGGFI to LLQLTVWGI, the IC50 falls from 3.33 µM to 0.645 µM (5.2-fold).

Going from SLLNATDIAV to RILQQLLFI, the IC50 falls from 5.48 µM to 1.82 µM (3-fold).

First: LVGPTPVNI
Second: AIIRILQQL
The IC50 of the first is 8.1-fold lower: 0.0678 µM for the first, 0.548 µM for the second.

First: MTNNPPIPV
Second: LTFGWCFKL
The IC50 of the first is 2.2-fold higher: 0.0121 µM for the first, 0.0056 µM for the second. The second is the more potent here.

System: not given
Conditions: concentrations in the pg range

For `CC(=O)O[C@@H]1[C@H](O[C@@H]2O[C@@H](CO)[C@H](O)[C@H]2O)[C@@H](O[C@@H]2O[C@@H](C)[C@H](O[C@@H]3OC[C@@H](O)[C@H](O)[C@H]3O)[C@@H](O)[C@H]2O)[C@H](OC(=O)[C@]23CCC(C)(C)C[C@H]2C2=CC[C@@H]4[C@@]5(C)CC[C@H](O[C@@H]6O[C@H](C(=O)O)[C@@H](O)[C@H](O[C@@H]7OC[C@@H](O)[C@H](O)[C@H]7O)[C@H]6O[C@@H]6O[C@H](CO)[C@H](O)[C@H](O)[C@H]6O)[C@@](C)(C=O)[C@H]5CC[C@@]4(C)[C@]2(C)CC3)O[C@@H]1C` [Squarroside A], the immunomodulating effect is listed as “stimulant effect”.

Same assay, conditions: concentrations in the μg range

In the case of `CC(=O)O[C@@H]1[C@H](O[C@@H]2O[C@@H](CO)[C@H](O)[C@H]2O)[C@@H](O[C@@H]2O[C@@H](C)[C@H](O[C@@H]3OC[C@@H](O)[C@H](O)[C@H]3O)[C@@H](O)[C@H]2O)[C@H](OC(=O)[C@]23CCC(C)(C)C[C@H]2C2=CC[C@@H]4[C@@]5(C)CC[C@H](O[C@@H]6O[C@H](C(=O)O)[C@@H](O)[C@H](O[C@@H]7OC[C@@H](O)[C@H](O)[C@H]7O)[C@H]6O[C@@H]6O[C@H](CO)[C@H](O)[C@H](O)[C@H]6O)[C@@](C)(C=O)[C@H]5CC[C@@]4(C)[C@]2(C)CC3)O[C@@H]1C` [Squarroside A], the immunomodulating effect is given as “suppressive effect”.
